Columns and labels:
[1] = system: Candida albicans; test: Antimicrobial action, microbe count (Example 6); format: cell-based; details: conc. 0.5%; for Δlog: t24 h
Method: For sample preparation, the substances being investigated are each dissolved or homogeneously dispersed in an amount of 1.0% in a water/ethanol mixture (12% of ethanol) (=sample). A bacteria suspension of S. epidermidis (ATCC 12228) having an optical density of 1.0 in CASO broth (Merck 1.05459) is diluted 1:10000 with CASO broth. 500 μl of sample are added to 500 μl of bacteria suspension, and the mixture is incubated at 35° C. for 24 h. After the incubation, the test batches are diluted to −6 in 10 unit steps, and 0.1 ml of each is plated-out on CASO agar (Merck 1.05458) and incubated at 35° C. for 24 h.
In order to determine the initial microbe count, 0.1 ml of the bacteria suspension used are plated-out on CASO agar (Merck 1.05458) and incubated at 35° C. for 24 h.
The colonies are subsequently counted, and the microbe count per ml is determined compared with the negative control (12% of ethanol in water).
The procedure corresponds to that described in Examples 4 and 5 using the microorganisms shown below. The concentrations indicated are the final use concentrations. In order to prepare the stock solution, double the final concentration were prepared in the solvent indicated. This was subsequently diluted 1:2 with the corresponding microbe suspension. In the case of Aspergillus brasiliensis, the microbe count determination was exceptionally carried out after 48 h.

[2] = system: P. acnes (ATCC 6919); test: Growth inhibition by optical density, Bioscreen C (Example 4); format: cell-based, Propionibacterium acnes; details: 1.0% sample in water/ethanol (12% of ethanol) diluted 1 to 2 with bacteria suspension; 37° C.; negative control 1.0
Method: For sample preparation, the substances being investigated are each dissolved or homogeneously dispersed in an amount of 1.0% in a water/ethanol mixture (12% of ethanol) and subsequently diluted with bacteria suspension in the ratio 1 to 2. P. acnes (ATCC 6919) is pre-incubated under anaerobic conditions for 48 h at 35° C. on RMC agar (Merck 1.05410). A bacteria suspension having an optical density (OD) of about 1.5 is subsequently prepared in RMC broth (Merck 1.05411, double-concentrated). 150 μl of freshly prepared sample and 100 μl of paraffin are added to 150 μl of bacteria suspension per well. The optical density is determined over the course of time at 37° C. using a Bioscreen C™ analyser compared with the negative control (=vehicle without test substance). Compared with the negative control, reduced optical densities confirm growth-inhibiting substance actions.
(§1) Result as optical density of the bacteria suspension after an exposure time of 20 hours: […]

[3] = system: S. epidermidis (ATCC 12228); test: Growth inhibition by optical density, Bioscreen C (Example 3); format: cell-based, Staphylococcus epidermidis; details: 1st experiment; 1.0% sample in water/ethanol (12% of ethanol) diluted 1 to 2 with bacteria suspension; 37° C.; negative control 0.80
Method: For sample preparation, the substances being investigated are each dissolved or homogeneously dispersed in an amount of 1.0% in a water/ethanol mixture (12% of ethanol) and subsequently diluted with bacteria suspension in the ratio 1 to 2. S. epidermidis (ATCC 12228) is pre-incubated under aerobic conditions for 24 h at 35° C. on CASO agar (Merck 1.05458). A bacteria suspension having an optical density (OD) of about 1.0 is subsequently prepared in CASO broth (Merck 1.05459, double-concentrated) and diluted again 1:10 in CASO broth. 150 μl of freshly prepared sample are added to 150 μl of bacteria suspension per well. The optical density is determined over the course of time at 37° C. using a Bioscreen C™ analyser compared with the negative control (=vehicle without test substance). Compared with the negative control, reduced optical densities confirm growth-inhibiting substance actions
as §1

[4] = H2O (12% of ethanol), count t0 3.4 × 10^4

With `CCOC(=O)C1CCCCC1O` (stereo not drawn) [Substance I-2] the “Microbe count t24 h” value [1, 4] was 3.0 × 10^2, the Δlog [1, 4] was −2.05 and the “Microbe count t24 h” value ([1]; H2O, count t0 3.8 × 10^5) was 2.5 × 10^5. For the same compound, the Δlog ([1]; H2O, count t0 3.8 × 10^5) was −0.18, the “OD20h, optical density of the bacteria suspension after 20 hours” value [2] was 0.45 and the “OD20h, optical density of the bacteria suspension after 20 hours” value [3] was 0.30.

Reference: USRE46698E1, “Use of cyclohexanol derivatives as antimicrobial active compounds” (MERCK PATENT GMBH, priority 2011, dated 2018)
